Data published in ChEMBL document CHEMBL5029192, “Novel Macrocyclic LRRK2 Inhibitors for Treating Parkinson's Disease” (ACS Med Chem Lett, 2022).

Target: Leucine-rich repeat serine/threonine-protein kinase 2 (Homo sapiens, UniProt Q5S007)
Test: Inhibition of recombinant human LRRK2 using LRRKtide peptide and ATP as substrates incubated for 1 hrs by ADP-glo luminescent assay

Chain of Leucine-rich repeat serine/threonine-protein kinase 2 (Q5S007 whole entry): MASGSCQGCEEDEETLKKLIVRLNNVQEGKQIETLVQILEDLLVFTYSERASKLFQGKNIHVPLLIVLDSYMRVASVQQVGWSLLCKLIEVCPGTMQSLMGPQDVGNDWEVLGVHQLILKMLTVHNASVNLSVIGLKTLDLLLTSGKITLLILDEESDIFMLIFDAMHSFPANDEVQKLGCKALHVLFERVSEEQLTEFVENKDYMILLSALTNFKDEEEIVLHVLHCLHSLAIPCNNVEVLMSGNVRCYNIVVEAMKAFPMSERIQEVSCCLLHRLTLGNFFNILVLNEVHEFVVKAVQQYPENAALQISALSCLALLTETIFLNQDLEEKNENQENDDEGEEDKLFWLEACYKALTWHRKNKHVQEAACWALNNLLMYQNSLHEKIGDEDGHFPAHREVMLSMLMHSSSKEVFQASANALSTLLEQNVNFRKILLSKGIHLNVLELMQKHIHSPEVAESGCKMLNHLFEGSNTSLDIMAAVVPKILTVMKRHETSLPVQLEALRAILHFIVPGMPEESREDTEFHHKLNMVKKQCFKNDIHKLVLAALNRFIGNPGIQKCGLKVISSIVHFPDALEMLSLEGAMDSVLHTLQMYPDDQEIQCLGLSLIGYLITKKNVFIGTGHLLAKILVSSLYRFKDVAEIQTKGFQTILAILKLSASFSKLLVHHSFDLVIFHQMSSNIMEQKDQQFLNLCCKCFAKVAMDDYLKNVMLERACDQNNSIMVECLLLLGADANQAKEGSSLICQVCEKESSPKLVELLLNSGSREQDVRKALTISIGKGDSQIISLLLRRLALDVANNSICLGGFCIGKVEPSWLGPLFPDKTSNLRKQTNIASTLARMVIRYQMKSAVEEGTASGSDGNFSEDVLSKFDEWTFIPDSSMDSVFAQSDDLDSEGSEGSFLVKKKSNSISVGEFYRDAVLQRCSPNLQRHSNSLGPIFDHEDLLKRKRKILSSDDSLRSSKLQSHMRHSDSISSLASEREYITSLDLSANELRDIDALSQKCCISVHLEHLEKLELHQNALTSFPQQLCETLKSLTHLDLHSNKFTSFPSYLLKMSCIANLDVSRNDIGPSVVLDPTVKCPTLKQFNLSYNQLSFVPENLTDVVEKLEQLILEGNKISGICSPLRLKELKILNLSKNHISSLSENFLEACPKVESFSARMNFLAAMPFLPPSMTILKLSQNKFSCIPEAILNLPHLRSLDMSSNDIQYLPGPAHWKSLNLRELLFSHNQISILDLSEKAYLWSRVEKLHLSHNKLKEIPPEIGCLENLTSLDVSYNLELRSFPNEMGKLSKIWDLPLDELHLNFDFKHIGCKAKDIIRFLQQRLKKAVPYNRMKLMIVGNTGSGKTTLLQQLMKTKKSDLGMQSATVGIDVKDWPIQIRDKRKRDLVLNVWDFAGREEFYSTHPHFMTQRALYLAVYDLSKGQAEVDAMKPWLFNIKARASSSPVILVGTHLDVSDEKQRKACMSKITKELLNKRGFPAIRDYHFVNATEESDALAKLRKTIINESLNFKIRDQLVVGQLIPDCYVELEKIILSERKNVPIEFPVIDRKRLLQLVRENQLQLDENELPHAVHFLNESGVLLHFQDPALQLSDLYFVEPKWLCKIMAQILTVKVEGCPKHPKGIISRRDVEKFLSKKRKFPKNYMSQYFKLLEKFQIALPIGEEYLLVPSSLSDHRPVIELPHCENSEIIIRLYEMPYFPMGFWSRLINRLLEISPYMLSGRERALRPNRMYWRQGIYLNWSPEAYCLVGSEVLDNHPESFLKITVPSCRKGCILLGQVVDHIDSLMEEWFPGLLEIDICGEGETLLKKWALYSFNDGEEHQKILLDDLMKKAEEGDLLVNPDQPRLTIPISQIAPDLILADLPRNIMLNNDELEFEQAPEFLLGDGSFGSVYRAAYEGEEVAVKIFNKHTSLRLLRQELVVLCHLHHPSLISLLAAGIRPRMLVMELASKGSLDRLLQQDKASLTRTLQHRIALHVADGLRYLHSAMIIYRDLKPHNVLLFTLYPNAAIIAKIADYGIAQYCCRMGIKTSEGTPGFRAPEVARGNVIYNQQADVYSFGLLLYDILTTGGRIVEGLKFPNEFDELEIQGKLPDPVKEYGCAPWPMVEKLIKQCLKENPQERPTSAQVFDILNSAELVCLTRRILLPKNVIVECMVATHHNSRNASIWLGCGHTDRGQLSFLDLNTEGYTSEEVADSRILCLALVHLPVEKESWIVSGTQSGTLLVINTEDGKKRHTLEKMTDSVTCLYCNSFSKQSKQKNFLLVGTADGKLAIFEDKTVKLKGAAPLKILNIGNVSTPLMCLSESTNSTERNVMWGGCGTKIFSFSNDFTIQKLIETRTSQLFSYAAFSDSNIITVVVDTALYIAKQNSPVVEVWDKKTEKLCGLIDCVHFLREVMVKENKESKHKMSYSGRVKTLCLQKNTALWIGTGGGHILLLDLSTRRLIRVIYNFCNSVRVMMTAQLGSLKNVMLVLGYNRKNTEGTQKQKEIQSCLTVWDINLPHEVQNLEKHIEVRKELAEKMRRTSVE

SMILES | IC50 [nM]
O=C1NCCCOc2ccc3[nH]nc(c3c2)-c2cc(cc(N3CCC(N4CCOCC4)CC3)c2)CO1 | < 10
O=C1NCCCOc2ccc3[nH]nc(c3c2)-c2cc(cc(N3CCC4(COC4)C3)c2)CO1 | < 10
O=C1NCCCOc2ccc3[nH]nc(c3c2)-c2csc(n2)CCO1 | < 10
O=C1NCCCOc2ccc3[nH]nc(c3c2)-c2cc(cc(N3CCC(N4CCCC4)CC3)c2)CO1 | < 10

Now from value to molecule:

IC50 [nM] | SMILES
< 10 | O=C1NCCCOc2ccc3[nH]nc(c3c2)-c2cc(cc(N3CCN(C4COC4)CC3)c2)CO1
< 10 | O=C1NCCCOc2ccc3[nH]nc(c3c2)-c2ccc(C3CC3)c(c2)CO1
